{"source": "paper PMC11790914", "about": "“Chemogenomics for steroid hormone receptors (NR3)” (Communications Chemistry, 2025)", "key": {"[1]": {"molecular_target": "T1, ABL1 (Homo sapiens, UniProt P00519)", "T1 construct": "made in house", "T1 sequence (P00519 whole entry, species assumed)": "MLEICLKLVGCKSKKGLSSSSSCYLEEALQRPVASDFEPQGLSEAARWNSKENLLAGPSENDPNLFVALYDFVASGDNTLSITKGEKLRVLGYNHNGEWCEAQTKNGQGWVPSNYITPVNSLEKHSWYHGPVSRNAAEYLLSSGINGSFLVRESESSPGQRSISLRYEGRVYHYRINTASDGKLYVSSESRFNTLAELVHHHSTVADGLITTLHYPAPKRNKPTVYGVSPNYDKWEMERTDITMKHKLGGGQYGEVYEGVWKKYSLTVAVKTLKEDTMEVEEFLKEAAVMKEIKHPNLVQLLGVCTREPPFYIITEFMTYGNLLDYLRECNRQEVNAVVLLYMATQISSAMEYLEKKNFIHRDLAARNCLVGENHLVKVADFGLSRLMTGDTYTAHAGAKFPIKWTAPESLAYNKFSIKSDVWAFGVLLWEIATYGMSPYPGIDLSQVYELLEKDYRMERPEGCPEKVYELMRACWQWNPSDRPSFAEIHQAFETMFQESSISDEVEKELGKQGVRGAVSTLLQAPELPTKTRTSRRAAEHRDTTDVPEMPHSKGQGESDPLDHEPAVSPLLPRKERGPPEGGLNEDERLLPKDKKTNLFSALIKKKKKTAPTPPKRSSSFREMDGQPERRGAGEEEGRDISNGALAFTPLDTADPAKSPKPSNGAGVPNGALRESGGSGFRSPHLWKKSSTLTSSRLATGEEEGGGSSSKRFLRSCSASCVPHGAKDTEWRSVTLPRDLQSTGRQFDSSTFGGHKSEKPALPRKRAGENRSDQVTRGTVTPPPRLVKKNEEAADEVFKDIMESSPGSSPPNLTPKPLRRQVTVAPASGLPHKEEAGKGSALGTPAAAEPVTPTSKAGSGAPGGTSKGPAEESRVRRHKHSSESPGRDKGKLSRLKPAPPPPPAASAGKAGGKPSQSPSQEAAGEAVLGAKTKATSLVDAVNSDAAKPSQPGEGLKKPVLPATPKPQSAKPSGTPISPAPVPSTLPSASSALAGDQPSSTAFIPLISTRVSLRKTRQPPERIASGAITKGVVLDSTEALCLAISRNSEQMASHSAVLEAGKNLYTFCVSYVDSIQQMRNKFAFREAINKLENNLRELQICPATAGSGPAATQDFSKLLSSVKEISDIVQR", "assay": "Liability panel screening by DSF: ABL1", "type": "binding", "details": "DSF, 20 µM, n=2; read-out: Mean ΔTM ABL1", "in_short": "(§1)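 Recombinant protein at 2 µM in 10 mM HEPES pH 7.5 with 500 mM NaCl was mixed with SYPRO Orange (1:1000) and heated at 3 °C/min up to 85 °C. Tm was taken as the Boltzmann-fit inflection point. Shifts are ∆Tm in K from technical duplicates.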"}, "[2]": {"molecular_target": "T2, BRD4 (Homo sapiens, UniProt O60885)", "T2 construct": "This panel comprised ten highly ligandable kinases and bromodomains; made in house", "assay": "Liability panel screening by DSF: BRD4", "type": "binding", "details": "DSF, 20 µM, n=2; read-out: Mean ΔTM BRD4", "in_short": "as §1"}, "[3]": {"molecular_target": "T3, MAPK1 (Homo sapiens, UniProt P28482)", "T3 construct": "made in house", "T3 sequence (P28482 whole entry, species assumed)": "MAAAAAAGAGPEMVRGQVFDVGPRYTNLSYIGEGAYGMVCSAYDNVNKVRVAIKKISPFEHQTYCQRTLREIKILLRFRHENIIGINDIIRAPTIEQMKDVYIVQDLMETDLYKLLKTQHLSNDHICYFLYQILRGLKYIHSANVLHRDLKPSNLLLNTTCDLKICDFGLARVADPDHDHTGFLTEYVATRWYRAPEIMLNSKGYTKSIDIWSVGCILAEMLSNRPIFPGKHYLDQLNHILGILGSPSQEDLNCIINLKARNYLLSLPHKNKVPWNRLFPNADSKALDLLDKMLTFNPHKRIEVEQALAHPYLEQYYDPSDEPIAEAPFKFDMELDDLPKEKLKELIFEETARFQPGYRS", "assay": "Liability panel screening by DSF: MAPK1", "type": "binding", "details": "DSF, 20 µM, n=2; read-out: Mean ΔTM MAPK1", "in_short": "as §1"}, "[4]": {"test_system": "HEK293T cells", "assay": "Cytotoxicity: apoptosis induction (caspase-3/7 DEVD fluorogenic DNA dye)", "details": "HEK293T, 24 h, apoptotic cell count normalized to 0.1% DMSO, single replicates"}, "[5]": {"molecular_target": "T4, BRPF1 (Homo sapiens, UniProt P55201)", "T4 construct": "This panel comprised ten highly ligandable kinases and bromodomains; made in house", "T4 sequence (P55201 628-732 limits assumed)": "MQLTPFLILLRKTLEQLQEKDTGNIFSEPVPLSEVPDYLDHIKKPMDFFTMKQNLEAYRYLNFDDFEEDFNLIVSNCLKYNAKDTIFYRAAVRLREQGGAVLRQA", "assay": "Liability panel screening by DSF: BRPF1", "type": "binding", "details": "DSF, 20 µM, n=2; read-out: Mean ΔTM BRPF1", "in_short": "as §1"}, "[6]": {"molecular_target": "T5, AURKA (Homo sapiens, UniProt O14965)", "T5 construct": "made in house", "T5 sequence (O14965 1-403)": "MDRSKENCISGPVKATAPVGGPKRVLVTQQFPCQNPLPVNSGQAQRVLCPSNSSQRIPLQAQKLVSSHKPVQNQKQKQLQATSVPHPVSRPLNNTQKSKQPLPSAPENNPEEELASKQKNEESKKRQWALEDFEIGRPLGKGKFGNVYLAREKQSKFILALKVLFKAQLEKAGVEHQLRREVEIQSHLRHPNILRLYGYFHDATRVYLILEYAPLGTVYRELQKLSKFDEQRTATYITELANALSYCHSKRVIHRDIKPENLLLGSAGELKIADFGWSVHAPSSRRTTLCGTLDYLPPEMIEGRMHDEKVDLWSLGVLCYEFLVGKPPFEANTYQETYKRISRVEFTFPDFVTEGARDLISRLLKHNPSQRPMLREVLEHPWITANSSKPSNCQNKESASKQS", "assay": "Liability panel screening by DSF: AURKA", "type": "binding", "details": "DSF, 20 µM, n=2; read-out: Mean ΔTM AURKA", "in_short": "as §1"}, "[7]": {"molecular_target": "T6, TRIM24 (Homo sapiens, UniProt O15164)", "T6 construct": "This panel comprised ten highly ligandable kinases and bromodomains; made in house", "T6 sequence (O15164 899-1004 limits assumed)": "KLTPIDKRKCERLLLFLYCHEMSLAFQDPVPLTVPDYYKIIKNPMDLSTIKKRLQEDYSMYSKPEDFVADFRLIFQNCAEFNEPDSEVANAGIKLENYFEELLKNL", "assay": "Liability panel screening by DSF: TRIM24", "type": "binding", "details": "DSF, 20 µM, n=2; read-out: Mean ΔTM TRIM24", "in_short": "as §1"}, "[8]": {"test_system": "ATF6 activity in Hela ATF6 reporter cells", "assay": "Endoplasmic reticulum stress assay (ATF6 Renilla luciferase reporter, tunicamycin)", "type": "cell-based", "in_short": "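ER stress was induced by 100 ng/mL tunicamycin added 4 h after compound (0.1% DMSO) to HeLa ATF6 reporter cells. After 18 h more, Renilla luciferase signal was read and expressed relative to DMSO control, n=5 biological replicates.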"}, "[9]": {"molecular_target": "T7, GSK3B (Homo sapiens, UniProt P49841)", "T7 construct": "made in house", "T7 sequence (P49841 whole entry, species assumed)": "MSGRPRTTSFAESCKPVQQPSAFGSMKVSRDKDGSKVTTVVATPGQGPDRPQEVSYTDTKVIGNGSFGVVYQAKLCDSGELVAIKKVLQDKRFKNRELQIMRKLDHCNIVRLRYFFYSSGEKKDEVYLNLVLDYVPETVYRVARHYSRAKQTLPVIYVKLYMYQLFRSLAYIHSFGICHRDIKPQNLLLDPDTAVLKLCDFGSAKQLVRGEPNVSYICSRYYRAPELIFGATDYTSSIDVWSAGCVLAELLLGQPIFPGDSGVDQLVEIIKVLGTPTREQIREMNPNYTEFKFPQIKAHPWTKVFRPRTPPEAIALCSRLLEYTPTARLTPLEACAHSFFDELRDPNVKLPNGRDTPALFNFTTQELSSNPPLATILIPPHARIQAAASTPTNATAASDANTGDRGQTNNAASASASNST", "assay": "Liability panel screening by DSF: GSK3B", "type": "binding", "details": "DSF, 20 µM, n=2; read-out: Mean ΔTM GSK3B"}, "[10]": {"test_system": "HEK293T cells", "assay": "Cytotoxicity: growth-rate (change in confluence over 24 h)", "details": "normalized to 0.1% DMSO control, single replicates (n=1...)"}, "[11]": {"molecular_target": "T8, CDK2 (Homo sapiens, UniProt P24941)", "T8 construct": "made in house", "assay": "Liability panel screening by DSF: CDK2", "type": "binding", "details": "DSF, 20 µM, n=2; read-out: Mean ΔTM CDK2", "in_short": "as §1"}, "[12]": {"molecular_target": "T9, FGFR3 (Homo sapiens, UniProt P22607)", "T9 construct": "made in house", "T9 sequence (P22607 23-806, species assumed)": "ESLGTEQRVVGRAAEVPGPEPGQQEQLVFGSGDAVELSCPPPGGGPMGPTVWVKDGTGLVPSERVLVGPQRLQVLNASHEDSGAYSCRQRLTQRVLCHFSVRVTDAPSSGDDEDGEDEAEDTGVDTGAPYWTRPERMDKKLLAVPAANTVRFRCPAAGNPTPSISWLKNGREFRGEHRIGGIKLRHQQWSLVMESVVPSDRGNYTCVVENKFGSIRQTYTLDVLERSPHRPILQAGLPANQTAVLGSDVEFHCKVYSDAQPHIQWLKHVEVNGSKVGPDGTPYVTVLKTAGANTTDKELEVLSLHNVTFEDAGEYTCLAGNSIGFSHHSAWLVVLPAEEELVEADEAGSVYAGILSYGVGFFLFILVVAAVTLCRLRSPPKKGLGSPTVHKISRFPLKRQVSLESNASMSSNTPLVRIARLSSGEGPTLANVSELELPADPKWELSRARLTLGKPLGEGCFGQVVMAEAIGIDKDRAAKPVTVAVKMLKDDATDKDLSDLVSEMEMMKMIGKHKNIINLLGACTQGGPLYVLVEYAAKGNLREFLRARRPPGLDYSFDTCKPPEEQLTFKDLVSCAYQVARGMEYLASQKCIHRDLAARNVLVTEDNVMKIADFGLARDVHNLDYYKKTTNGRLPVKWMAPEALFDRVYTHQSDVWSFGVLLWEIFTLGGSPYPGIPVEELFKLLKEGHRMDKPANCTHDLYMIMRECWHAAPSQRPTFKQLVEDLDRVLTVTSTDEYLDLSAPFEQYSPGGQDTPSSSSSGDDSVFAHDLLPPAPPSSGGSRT", "assay": "Liability panel screening by DSF: FGFR3", "type": "binding", "details": "DSF, 20 µM, n=2; read-out: Mean ΔTM FGFR3", "in_short": "as §1"}, "[13]": {"test_system": "NF-κB activity in HEK293 NF-κB reporter cells", "assay": "NF-kB activity assay (GFP reporter, ionomycin/PMA)", "type": "cell-based", "details": "n=3", "in_short": "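Reporter readout: GFP-expressing cells normalized to confluence, imaged every 90 min across 24 h after ionomycin (100 ng/mL)/PMA (10 ng/mL) stimulation of HEK293 cells pre-treated 4 h with compound (0.1% DMSO); triplicate independent experiments.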"}}, "note": "Where “and” joins values, the source holds several entries; their conditions need not be identical. Equal values may be shown once. Entries after “also recorded” stand apart in the source; their conditions may differ.", "data": [{"smiles": "CC/C(=C(/CC)c1ccc(O)cc1)c1ccc(O)cc1", "note": "[Diethylstilbestrol]", "values": [{"measurement": "ΔTm at 20 µM", "setting": "[1]", "value": -0.96, "unit": "°C"}, {"measurement": "ΔTm at 20 µM", "setting": "[2]", "value": -4.78, "unit": "°C"}, {"measurement": "ΔTm at 20 µM", "setting": "[3]", "value": -12.2, "unit": "°C"}, {"measurement": "Apoptosis induction [AI]", "setting": "[4]; 0.3 µM", "value": "0.86 and 1.37 (2×) and 0.83 and 1.54 and 0.77"}, {"measurement": "Apoptosis induction [AI]", "setting": "[4]; 3 µM", "value": "0.65 and 0.97 and 0.69 and 0.85 and 1.67 and 1.65"}, {"measurement": "ΔTm at 20 µM", "setting": "[5]", "value": -8.49, "unit": "°C"}, {"measurement": "ΔTm at 20 µM", "setting": "[6]", "value": -1.78, "unit": "°C"}, {"measurement": "ΔTm at 20 µM", "setting": "[7]", "value": 1.49, "unit": "°C"}, {"measurement": "ATF6 activity (tunicamycin-induced endoplasmic reticulum stress)", "setting": "[8]; Hela ATF6 reporter cells, tunicamycin 100 ng/mL, 18 h, compounds at recommended concentrations, n = 5", "value": "lacked this effect; also recorded: failed to reduce ATF6 activity"}, {"measurement": "activity at 0.3 µM", "setting": "[8]; Homo sapiens, HeLa, 0.3 µM, single replicates n=1 to n=5, read-out: ER stress [rel. ATF6 activity]", "value": 98, "unit": "%"}, {"measurement": "activity at 3 µM", "setting": "[8]; Homo sapiens, HeLa, 3 µM, single replicates n=1 to n=5, read-out: ER stress [rel. ATF6 activity]", "value": "98% and 101%"}, {"measurement": "ΔTm at 20 µM", "setting": "[9]", "value": -3.54, "unit": "°C"}, {"measurement": "Growth rate [GR]", "setting": "[10]; 0.3 µM", "value": "0.65 and 4.06 and 0.84 and 0.92 and 1.28 and 1.00 and 0.79 and 1.42 and 0.91 and 9.54"}, {"measurement": "Growth rate [GR]", "setting": "[10]; 3 µM", "value": "reduced the growth-rate and -0.21 and 0.65 and -0.29 and 0.04 and 0.36 and 0.21 and 0.28 and 1.17 and 0.46 and -0.41"}, {"measurement": "ΔTm at 20 µM", "setting": "[11]", "value": -5.57, "unit": "°C"}, {"measurement": "ΔTm at 20 µM", "setting": "[12]", "value": -8.29, "unit": "°C"}, {"measurement": "Mean NFκB response", "setting": "[13]; 0.3 µM, 1,5 h", "value": "2313.08 GFP+-cells/confluence ∙ 1000"}, {"measurement": "Mean NFκB response", "setting": "[13]; 0.3 µM, 4,5 h", "value": "2949.70 GFP+-cells/confluence ∙ 1000"}, {"measurement": "Mean NFκB response", "setting": "[13]; 0.3 µM, 7,5 h", "value": "7538.46 GFP+-cells/confluence ∙ 1000"}, {"measurement": "Mean NFκB response", "setting": "[13]; 0.3 µM, 10,5 h", "value": "18701.55 GFP+-cells/confluence ∙ 1000"}, {"measurement": "Mean NFκB response", "setting": "[13]; 0.3 µM, 13,5 h", "value": "27206.00 GFP+-cells/confluence ∙ 1000"}, {"measurement": "Mean NFκB response", "setting": "[13]; 0.3 µM, 16,6 h", "value": "33288.00 GFP+-cells/confluence ∙ 1000"}, {"measurement": "Mean NFκB response", "setting": "[13]; 0.3 µM, 19,5 h", "value": "37133.33 GFP+-cells/confluence ∙ 1000"}, {"measurement": "Mean NFκB response", "setting": "[13]; 0.3 µM, 22,5 h", "value": "40576.67 GFP+-cells/confluence ∙ 1000"}, {"measurement": "Mean NFκB response", "setting": "[13]; 0.3 µM, 3 h", "value": "2350.33 GFP+-cells/confluence ∙ 1000"}, {"measurement": "Mean NFκB response", "setting": "[13]; 0.3 µM, 6 h", "value": "4223.97 GFP+-cells/confluence ∙ 1000"}, {"measurement": "Mean NFκB response", "setting": "[13]; 0.3 µM, 9 h", "value": "13522.53 GFP+-cells/confluence ∙ 1000"}, {"measurement": "Mean NFκB response", "setting": "[13]; 0.3 µM, 12 h", "value": "23340.33 GFP+-cells/confluence ∙ 1000"}, {"measurement": "Mean NFκB response", "setting": "[13]; 0.3 µM, 15 h", "value": "30431.00 GFP+-cells/confluence ∙ 1000"}, {"measurement": "Mean NFκB response", "setting": "[13]; 0.3 µM, 18 h", "value": "35400.00 GFP+-cells/confluence ∙ 1000"}, {"measurement": "Mean NFκB response", "setting": "[13]; 0.3 µM, 21 h", "value": "39313.33 GFP+-cells/confluence ∙ 1000"}, {"measurement": "Mean NFκB response", "setting": "[13]; 0.3 µM, 24 h", "value": "41536.67 GFP+-cells/confluence ∙ 1000"}, {"measurement": "Mean NFκB response", "setting": "[13]; 3 µM, 1,5 h", "value": "2624.20 GFP+-cells/confluence ∙ 1000"}, {"measurement": "Mean NFκB response", "setting": "[13]; 3 µM, 4,5 h", "value": "2942.05 GFP+-cells/confluence ∙ 1000"}, {"measurement": "Mean NFκB response", "setting": "[13]; 3 µM, 7,5 h", "value": "5380.00 GFP+-cells/confluence ∙ 1000"}, {"measurement": "Mean NFκB response", "setting": "[13]; 3 µM, 10,5 h", "value": "14690.00 GFP+-cells/confluence ∙ 1000"}, {"measurement": "Mean NFκB response", "setting": "[13]; 3 µM, 13,5 h", "value": "22563.33 GFP+-cells/confluence ∙ 1000"}, {"measurement": "Mean NFκB response", "setting": "[13]; 3 µM, 16,6 h", "value": "28276.67 GFP+-cells/confluence ∙ 1000"}, {"measurement": "Mean NFκB response", "setting": "[13]; 3 µM, 19,5 h", "value": "33253.33 GFP+-cells/confluence ∙ 1000"}, {"measurement": "Mean NFκB response", "setting": "[13]; 3 µM, 22,5 h", "value": "36776.67 GFP+-cells/confluence ∙ 1000"}, {"measurement": "Mean NFκB response", "setting": "[13]; 3 µM, 3 h", "value": "2684.18 GFP+-cells/confluence ∙ 1000"}, {"measurement": "Mean NFκB response", "setting": "[13]; 3 µM, 6 h", "value": "3410.00 GFP+-cells/confluence ∙ 1000"}, {"measurement": "Mean NFκB response", "setting": "[13]; 3 µM, 9 h", "value": "9373.33 GFP+-cells/confluence ∙ 1000"}, {"measurement": "Mean NFκB response", "setting": "[13]; 3 µM, 12 h", "value": "19050.00 GFP+-cells/confluence ∙ 1000"}, {"measurement": "Mean NFκB response", "setting": "[13]; 3 µM, 15 h", "value": "25776.67 GFP+-cells/confluence ∙ 1000"}, {"measurement": "Mean NFκB response", "setting": "[13]; 3 µM, 18 h", "value": "30966.67 GFP+-cells/confluence ∙ 1000"}, {"measurement": "Mean NFκB response", "setting": "[13]; 3 µM, 21 h", "value": "34670.00 GFP+-cells/confluence ∙ 1000"}, {"measurement": "Mean NFκB response", "setting": "[13]; 3 µM, 24 h", "value": "38090.00 GFP+-cells/confluence ∙ 1000"}]}]}
